Patent EP0420021B1, “Hydrophilic laminated porous membranes and methods of preparing same” (ABBOTT LABORATORIES, priority 1989, dated 1991)

Experiment: Capillary wicking time of laminated membrane strip (hydrophilicity)
Type: physicochemical
Details: 0 days storage at 45° C; membrane treated with surfactant as example 4 Part E, laminated with Flexcon PM150C/V23/Poly SC9
Text: The terms "hydrophilic" and "wettable" are frequently used herein and are used interchangeably as antonyms for "hydrophobic". A number of procedures can be used to measure hydrophilicity. Since the membranes of the preferred embodiment resemble thin layer chromatograhic strips, hydrophilicity is here measured as the rate at which the solvent front traverses the membrane strips. Darcy's law provides a rate by relating the distance the front travels to the time t. For a fixed distance, L, the relevant measurement is the time taken for the front to reach L. A relative measure of hydrophilicity is given by comparing the time or "wicking" rate of treated laminated membranes against the time or wicking rate of untreated laminated membranes. Although relative hydrophilicity is sufficient, for purposes of this invention a membrane is considered "hydrophilic" if the flow rate is such that the front traverses a length compatible with visualizing a result (ie., 2 - 10 cm) in a time consistent with rapid diagnostic assays, (ie., less than 10 minutes and preferably less than 5 minutes).
[…] At various time intervals (0, 7, 14, 21, 28, 56, 84, 112, etc days) the hydrophilicity of the membrane was tested by immersing a strip of laminated membrane 1-3 mm into a test solution (0.1M Tris pH 7.4, 0.9% NaCl, phenol red) and measuring the time required for the solution front to migrate a distance of 5.4 cm. A more hydrophilic membrane requires a shorter time for the liquid to move 5.4 cm.

Point of comparison: `CCCCCCCCCCS(=O)(=O)O` [decane sulfonic acid], “Wicking Time to traverse 5.4 cm strip” value 5.7 min. Against it:
- CCCCCCCCCCCCS(=O)(=O)O [dodecane sulfonic acid] — within 1.5-fold, 6.2 min
- CCCCCCCS(=O)(=O)O [heptane sulfonic acid] — within 1.5-fold, 4.9 min
- CCCCCCCCS(=O)(=O)O [octane sulfonic acid] — within 1.5-fold, 5.1 min
- CCCCCS(=O)(=O)O [pentane sulfonic acid] — within 1.5-fold, 4.1 min
- CCCCCCCCCCCCOS(=O)(=O)[O-].[Na+] [sodium dodecyl sulfate] — within 1.5-fold, 6.3 min

Same assay, conditions: 7 days storage at 45° C; surfactant-treated (example 4 Part E), Poly SC9 laminate

Point of comparison: `CCCCCCCCS(=O)(=O)O` [octane sulfonic acid], “Wicking Time to traverse 5.4 cm strip” value 5.6 min. Against it:
- CCCCCCCCCCS(=O)(=O)O [decane sulfonic acid] — within 1.5-fold, 6.4 min
- CCCCCCCCCCCCS(=O)(=O)O [dodecane sulfonic acid] — within 1.5-fold, 6.4 min
- CCCCCCCS(=O)(=O)O [heptane sulfonic acid] — within 1.5-fold, 5.3 min
- CCCCCS(=O)(=O)O [pentane sulfonic acid] — within 1.5-fold, 5.5 min
- CCCCCCCCCCCCOS(=O)(=O)[O-].[Na+] [sodium dodecyl sulfate] — within 1.5-fold, 7.1 min

Same assay, conditions: 14 days storage at 45° C; surfactant-treated (example 4 Part E), Poly SC9 laminate

Point of comparison: `CCCCCCCS(=O)(=O)O` [heptane sulfonic acid], “Wicking Time to traverse 5.4 cm strip” value 5.2 min. Against it:
- CCCCCCCCCCS(=O)(=O)O [decane sulfonic acid] — within 1.5-fold, 6.0 min
- CCCCCCCCCCCCS(=O)(=O)O [dodecane sulfonic acid] — within 1.5-fold, 6.0 min
- CCCCCCCCS(=O)(=O)O [octane sulfonic acid] — within 1.5-fold, 5.4 min
- CCCCCS(=O)(=O)O [pentane sulfonic acid] — within 1.5-fold, 5.4 min
- CCCCCCCCCCCCOS(=O)(=O)[O-].[Na+] [sodium dodecyl sulfate] — within 1.5-fold, 7.0 min

Same assay, conditions: 21 days storage at 45° C; surfactant-treated (example 4 Part E), Poly SC9 laminate

Point of comparison: `CCCCCCCCS(=O)(=O)O` [octane sulfonic acid], “Wicking Time to traverse 5.4 cm strip” value 5.6 min. Against it:
- CCCCCCCCCCS(=O)(=O)O [decane sulfonic acid] — within 1.5-fold, 6.3 min
- CCCCCCCCCCCCS(=O)(=O)O [dodecane sulfonic acid] — within 1.5-fold, 6.3 min
- CCCCCCCS(=O)(=O)O [heptane sulfonic acid] — within 1.5-fold, 5.2 min
- CCCCCS(=O)(=O)O [pentane sulfonic acid] — the same, 5.6 min
- CCCCCCCCCCCCOS(=O)(=O)[O-].[Na+] [sodium dodecyl sulfate] — within 1.5-fold, 6.4 min

Same assay, conditions: 28 days storage at 45° C; surfactant-treated (example 4 Part E), Poly SC9 laminate

Point of comparison: `CCCCCCCCS(=O)(=O)O` [octane sulfonic acid], “Wicking Time to traverse 5.4 cm strip” value 5.7 min. Against it:
- CCCCCCCCCCS(=O)(=O)O [decane sulfonic acid] — within 1.5-fold, 6.2 min
- CCCCCCCCCCCCS(=O)(=O)O [dodecane sulfonic acid] — within 1.5-fold, 6.3 min
- CCCCCCCS(=O)(=O)O [heptane sulfonic acid] — within 1.5-fold, 5.3 min
- CCCCCS(=O)(=O)O [pentane sulfonic acid] — within 1.5-fold, 5.6 min
- CCCCCCCCCCCCOS(=O)(=O)[O-].[Na+] [sodium dodecyl sulfate] — within 1.5-fold, 6.0 min

Same assay, conditions: Part B: surfactant 0.1% w/v from isopropanol

In the case of `CCCCCCCCCCCCCCCCO` [cetyl alcohol], the “membrane wicking rate as a result of the treatment” value was “decreased”.
